These results are taken from paper PMC12615753, “Glutathione as a taste modulator: molecular mechanisms of interaction with umami and sweet taste receptors” (Food Chemistry: Molecular Sciences, 2025).

pEC50: −log10 of the molar value. Some results are limits rather than exact numbers.

The target in the assay is T1, hTAS1R1 S306A/rTAS1R3 (Homo sapiens, UniProt Q7RTX1, S306A).
T1 construct: expressed in transfected cells; host or cells: HEK293T/17 (ATCC CRL-11268)
T1 sequence (Q7RTX1 21-841 S306A): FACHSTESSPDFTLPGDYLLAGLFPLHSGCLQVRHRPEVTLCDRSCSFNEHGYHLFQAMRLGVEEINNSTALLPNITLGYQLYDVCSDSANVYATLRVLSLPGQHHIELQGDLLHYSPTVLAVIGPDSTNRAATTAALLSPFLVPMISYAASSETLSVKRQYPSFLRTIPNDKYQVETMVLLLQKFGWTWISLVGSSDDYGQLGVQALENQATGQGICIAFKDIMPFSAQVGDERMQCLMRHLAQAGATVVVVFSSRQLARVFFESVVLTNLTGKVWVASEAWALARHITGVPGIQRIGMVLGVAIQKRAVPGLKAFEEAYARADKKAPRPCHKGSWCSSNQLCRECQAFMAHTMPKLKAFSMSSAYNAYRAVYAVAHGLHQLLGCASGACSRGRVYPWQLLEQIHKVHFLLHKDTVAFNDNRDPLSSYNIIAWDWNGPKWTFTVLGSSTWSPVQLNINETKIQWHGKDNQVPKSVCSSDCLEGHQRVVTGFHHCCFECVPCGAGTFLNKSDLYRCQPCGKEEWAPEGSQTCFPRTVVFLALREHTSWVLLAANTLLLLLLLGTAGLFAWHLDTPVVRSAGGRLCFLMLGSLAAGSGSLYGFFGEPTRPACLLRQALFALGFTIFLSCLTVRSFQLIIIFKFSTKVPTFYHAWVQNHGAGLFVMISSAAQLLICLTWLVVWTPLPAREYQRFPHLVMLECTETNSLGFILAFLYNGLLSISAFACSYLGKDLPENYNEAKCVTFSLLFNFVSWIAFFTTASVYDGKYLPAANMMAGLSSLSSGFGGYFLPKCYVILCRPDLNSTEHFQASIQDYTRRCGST
T1 sequence (Q923K1 21-858 partner): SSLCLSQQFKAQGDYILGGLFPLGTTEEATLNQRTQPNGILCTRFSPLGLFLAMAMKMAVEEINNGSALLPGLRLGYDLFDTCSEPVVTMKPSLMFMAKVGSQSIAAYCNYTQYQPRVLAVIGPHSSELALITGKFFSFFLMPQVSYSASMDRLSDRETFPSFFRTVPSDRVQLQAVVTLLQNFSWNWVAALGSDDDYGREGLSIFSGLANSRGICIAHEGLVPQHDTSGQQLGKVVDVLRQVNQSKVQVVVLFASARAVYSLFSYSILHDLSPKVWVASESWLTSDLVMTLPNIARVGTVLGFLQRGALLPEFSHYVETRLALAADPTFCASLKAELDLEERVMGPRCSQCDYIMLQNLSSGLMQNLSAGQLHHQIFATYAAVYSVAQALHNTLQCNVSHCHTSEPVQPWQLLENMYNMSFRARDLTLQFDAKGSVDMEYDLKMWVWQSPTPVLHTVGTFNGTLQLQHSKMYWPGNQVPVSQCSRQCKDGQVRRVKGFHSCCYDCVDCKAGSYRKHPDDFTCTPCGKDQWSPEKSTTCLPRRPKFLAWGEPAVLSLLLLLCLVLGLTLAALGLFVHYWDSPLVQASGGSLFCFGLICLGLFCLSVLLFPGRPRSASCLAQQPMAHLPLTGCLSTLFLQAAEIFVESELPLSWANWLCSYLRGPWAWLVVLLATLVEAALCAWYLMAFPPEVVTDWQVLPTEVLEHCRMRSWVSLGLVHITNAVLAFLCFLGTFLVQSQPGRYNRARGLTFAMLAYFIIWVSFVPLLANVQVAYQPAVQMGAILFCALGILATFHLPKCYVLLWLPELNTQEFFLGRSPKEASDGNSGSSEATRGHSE
As to the kind of experiment: Calcium assay, hTAS1R1 mutant co-expressed with rTAS1R3. The class given is cell-based, rat. The source says:
Chimeric Gα proteins, such as Gα16Gust44, Gα16Gi3 or Gα15i2, are widely used in the functional expression of TAS1R receptors ([Backes et al., 2015]; [Suess et al., 2015]; [Toda et al., 2021], [Toda et al., 2013], [Toda et al., 2018]; [Zhang et al., 2008]). Chimeric Gα15i2 (([Toda et al., 2013]), Supplementary data) was generated by replacing the last five residues of the C-terminal tail of rat Gα15i2 (EINLL) (UniProt number G3V6N8; https://www.uniprot.org/uniprot/) with the counterpart sequence from human GNAI2 (DCGLF) (UniProt number P04899-1) and cloning into the pcDNA3.1/Hygro vector (Invitrogen, Thermo Fisher Scientific, Illkirch, France) between the HindIII and NotI restriction sites, resulting in the plasmid pcDNA3.1-Gα15i2. Chimeric Gα16Gust44 construct have already been reported ([Raliou et al., 2011]). Briefly, Gα16Gust44 was generated by replacing the C-terminal of Gα16 with the C-terminal 44 residues of gustducin. As previously described, hTAS1R1 was amplified from human fungiform papillae cDNA and cloned and inserted into pcDNA3 (Invitrogen), generating pcDNA3-TAS1R1-WT (wild-type) ([Raliou et al., 2011]). […] The cDNA coding region of rTAS1R3 was synthesized with optimized-codon usage for human expression (Genewiz) and was cloned and inserted into the mammalian pcDNA4/myc-HisA (Invitrogen) expression vector between the EcoRI and NotI restriction sites, resulting in the plasmid pcDNA4-rTAS1R3. […] The sequence integrity of all the plasmid constructs was verified via automated DNA sequencing (Genewiz).
The hTAS1R1 mutants were co-expressed with the rTAS1R3 subunit in HEK293 cells. […] As a control, the functionality of the mutated receptors was checked after stimulation with S807 (Fig. S8), which interacts with TAS1R1-TMD ([Zhang et al., 2008]).

For `N[C@@H](CCC(=O)N[C@@H](CS)C(=O)NCC(=O)O)C(=O)O` [GSH, γ-L-glutamyl-L-cysteinyl-glycine], the pEC50 – broadly, the EC50 on a negative log10 scale, so that one unit is a factor of ten – was below 1.52. Where the note is “S306A”, the “effect of the added compound (1 mM) on the response to L-Glu” value is recorded as “did not affect” and the “response to the agonist alone, vs WT” value is given as “fully abolished”.
In the case of `CCCC(CCC)NC(=O)c1ccc2c(c1)OCO2` [S807, N-(heptan-4-yl)benzo[d][1,3]dioxole-5-carboxamide, reference compound], the “response to the agonist alone, vs WT” value (S306A) is “strongly affected”.
